From US11446265B2, “Reagents, compositions and methods for improving viability and function of cells, tissues and organs” (TARGA BIOMEDICAL, priority 2016, dated 2022)

How the values were obtained:
[1] = tested on: human mesenchymal stem cells (hMSC); experiment: Proteomic analysis (mass spectrometry) of conditioned media of treated hMSC; type: cell-based; conditions: one hour Celastrol 10^−6 M
Procedure: Conditioned cell media was collected, concentrated, proteins were separated by gel electrophoresis and analyzed by mass spectrometry and identified through database search.
Briefly, rat MSCs were treated in suspension with conditioning compounds for 60 minutes. Cells were then washed, labeled with fluorescent cell tracker and injected at t=0 in rat left ischemic hindlimb. Transplanted cells were imaged in vivo until day 9 using Optix™ MX3 Molecular Imaging System from ART (FIG. 2: A,B).

[2] = tested on: human mesenchymal stem cells (hMSC); experiment: mRNA expression in hMSC by real-time PCR; type: cell-based
Description: FIG. 25A is a table representing mRNA expression of selected genes measured by real-time PCR in human mesenchymal stem cells (hMSC) conditioned with Celastrol alone or in combination with selected adjunct agents. Results are expressed as fold change versus Vehicle-treated cells.
FIG. 25B is a table representing mRNA expression of selected genes measured by real-time PCR in human mesenchymal stem cells (hMSC) conditioned with selected Celastrol analogs alone or in combination with selected adjunct agents. Results are expressed as fold change versus Vehicle-treated cells.
Results are expressed as fold change versus Vehicle-treated cells. (Arbitrary angiogenic index: (VEGFa+FGF2+SDF1)*2) (A=Additive effect; S=Synergistic effect).
(§1) To test the second main condition, MSCs were treated with the candidate pharmaco-optimizers for 1 hour, followed by 3 hours washout period. Cell mRNA was extracted and expression of genes of interest was quantified by real time PCR. In additional MSC cultures, cells were treated for one hour, washed and cultured in low serum media for 24 hours. The media containing paracrine factors secreted by MSCs was then placed in contact with H9c2 cardiomyoblast cell line. H9c2 cells were then submitted to the hypoxia/serum starvation (<1% O2 in hypoxia chamber in low serum media for 48 hours) or oxidative stress (incubation in media for 1 hour spiked with 0-1 mM H2O2). Viability status of H9c2 cells was evaluated using the LIVE/DEAD assay as detailed above.

[3] = tested on: human mesenchymal stem cells (hMSCs); experiment: VEGFa protein secreted by hMSC into culture medium; type: cell-based; conditions: 1-hour treatment combined with Celastrol; for VEGF protein after 48 hours in hypoxic condition: compared with normal culture; for VEGF protein after 48 hours in normal culture: normoxic
[4] = tested on: rat mesenchymal stem cells (rMSC); experiment: rMSC viability after hypoxia/serum starvation (LIVE/DEAD); type: cell-based; conditions: 1-hour treatment; for protection of rMSCs from 48-hour hypoxia induced cell death: compound alone
Procedure: (§2) To test the first main condition, MSCs (either sourced from rat or humans) were treated with the candidate pharmaco-optimizers, washed and submitted to hypoxia/serum starvation (<1% O2 in hypoxia chamber in low serum media for 48-72 hours) or oxidative stress (incubation in media for 1 hour spiked with 0-2 mM H2O2), which mimic the major lethal stressors present in the ischemic transplant microenvironment. Viability status of cells are assessed using the LIVE/DEAD viability/cytotoxicity kit (Life Technologies™) and results are quantified by Operetta high content screening (HCS) apparatus equipped with Harmony automated analysis software (Perkin Elmer™).

[5] = tested on: rat mesenchymal stem cells (rMSC); experiment: rMSC viability after oxidative stress (H2O2, LIVE/DEAD); type: cell-based; conditions: 1-hour treatment
Procedure: as §2

H9c2 cardiomyoblasts [6] = experiment: H9c2 viability after oxidative challenge, direct treatment with Celastrol combinations; type: cell-based, rat; conditions: 1-hour treatment combined with Celastrol; 1 mM H2O2 for 1 hour
H9c2 cells = experiment: H9c2 viability in oxidative stress after pre-conditioning with media from treated rMSC (paracrine); type: cell-based, rat; conditions: 24-hour preconditioning with media from treated rMSC
Procedure: as §1

[7] = tested on: rat mesenchymal stem cells (rMSC); experiment: mRNA expression in rMSC by real time PCR; type: cell-based; conditions: for effect on Celastrol-induced Catalase (CAT) mRNA expression / effect on Celastrol-induced FGF2 mRNA expression / effect on Celastrol-induced Glutathione peroxidase (GPx) mRNA expression / effect on Celastrol-induced Glutathione reductase (GR) mRNA expression / effect on Celastrol-induced HSP32 (HO-1) mRNA expression / effect on Celastrol-induced HSP70 mRNA expression / effect on Celastrol-induced Superoxide dismutase 1 (SOD1) mRNA expression / effect on Celastrol-induced VEGFα mRNA expression / effect on Celastrol-induced downregulation of TNFα mRNA / effect on Celastrol-induced HSP70 expression in two other rMSC cell lines: combined with Celastrol
Procedure: as §1
Combination Treatments Tested—First Experiment: Celastrol (1 μM) or Gedunin (1 μM)+EGCG (1 μM, 10 μM) or TBHQ (1 μM, 5 μM)

H9c2 cardiomyoblasts [8] = experiment: HO-1 and VEGFa mRNA in H9c2 cardiomyoblasts by real-time PCR; type: cell-based, rat; conditions: H9c2, 1-hour with Celastrol plus adjunct, 3 hour washout in normoxic or hypoxic condition
Description: Results are expressed as fold change versus Vehicle-treated h9c2.

[9] = rMSC, 1-hour treatment and 3-hour washout
[10] = rMSC, 1-hour treatment and 3-hour washout, combined with Gedunin
[11] = 1-hour treatment and 3-hour washout, combined with Celastrol

| Structure (SMILES) | ranking as adjunct agent in combination with Celastrol or Celastrol analogs (gene expression) ([2]; FIGS. 25A, 25B, 26A to 26D) | VEGF protein after 48 hours in hypoxic condition [3] | VEGF protein after 48 hours in normal culture [3] | protection of rMSCs from 48-hour hypoxia induced cell death [4] | viability of H9c2 cells following oxidative challenge (H9c2 cardiomyoblasts [6]) | protection of H9c2 cells from oxidative stress induced death (paracrine) (H9c2 cells) | effect on Celastrol-induced Catalase (CAT) mRNA expression [7, 9] | effect on Celastrol-induced FGF2 mRNA expression [7, 9] | effect on Celastrol-induced Glutathione peroxidase (GPx) mRNA expression [7, 9] | effect on Celastrol-induced Glutathione reductase (GR) mRNA expression [7, 9] | effect on Celastrol-induced HSP32 (HO-1) mRNA expression [7, 9] | effect on Celastrol-induced HSP70 mRNA expression [7, 9] | effect on Celastrol-induced Superoxide dismutase 1 (SOD1) mRNA expression [7, 9] | effect on Celastrol-induced VEGFα mRNA expression [7, 9] | effect on Celastrol-induced downregulation of TNFα mRNA [7, 9] | effect on Gedunin-induced downregulation of TNFα mRNA [7, 10] | effect on Celastrol-induced HSP70 expression in two other rMSC cell lines [7] | also measured |
| --- | --- | --- | --- | --- | --- | --- | --- | --- | --- | --- | --- | --- | --- | --- | --- | --- | --- | --- |
| CC1=C(O)C(=O)C=C2C1=CC=C1[C@@]2(C)CC[C@@]2(C)[C@@H]3C[C@](C)(C(=O)O)CC[C@]3(C)CC[C@]12C [Celastrol] |  |  |  |  |  |  |  |  |  |  |  |  |  |  |  |  |  | increased level of CAT in the culture media [1]: 1,7 fold; increased level of GSH in the culture media [1]: 2,8 fold; increased level of HGF in the culture media [1]: 2,1 fold; increased level of HO1 in the culture media [1]: 2,2 fold; increased level of HSP70 in the culture media [1]: 1,8 fold; increased level of HSP90a in the culture media [1]: 7,0 fold; increased level of HSP90b in the culture media [1]: 2,2 fold; increased level of MCSF in the culture media [1]: 24,4 fold; increased level of TRX in the culture media [1]: 2,5 fold |
| COc1cc(/C=C/C(=O)CC(=O)/C=C/c2ccc(O)c(OC)c2)ccc1O [Curcumin] | among top adjunct agents | even greater expression of VEGF protein | additive to synergistic increase in VEGF protein |  |  |  |  |  |  |  |  |  |  |  |  |  |  |  |
| Cc1c(O)c(O)cc2c1CC=C1[C@@]2(C)CC[C@@]2(C)[C@@H]3C[C@](C)(C(=O)O)CC[C@]3(C)CC[C@]12C [Dihydrocelastrol, dihydrocelastrol] |  |  |  |  |  |  |  |  |  |  |  |  |  |  |  |  |  | ranking as HSP90 inhibitor from expression of HSPs, growth factors, antioxidant proteins/enzymes, cytokines, matrix remodeling proteins ([2]; FIGS. 25A, 25B, 26A to 26D): best HSP90 inhibitors |
| O=C(O[C@@H]1Cc2c(O)cc(O)cc2O[C@@H]1c1cc(O)c(O)c(O)c1)c1cc(O)c(O)c(O)c1 [EGCG, epigallocatechin gallate] | among top adjunct agents | even greater expression of VEGF protein | additive to synergistic increase in VEGF protein | not | synergistic increase in viability | protects | synergistic increase | synergistic increase | synergistic increase | synergistic increase | synergistic increase | synergistic increase | synergistic increase | synergistic increase | synergistically accentuate | synergistically accentuate | synergistic increase | effect on Celastrol-mediated protection of rMSCs from hypoxia induced cell death ([4]; combined with Celastrol): potentiates Celastrol-mediated protection; effect on Celastrol-induced protection of rMSCs from oxidative stress induced death ([5]; combined with Celastrol): potentiates Celastrol-induced protection; protection of rMSCs from oxidative stress induced death ([5]; compound alone): protect; effect on Celastrol-induced HSP32 (HO-1) mRNA expression in human MSC [2, 11]: synergistic increase; effect on Celastrol-induced HSP70 mRNA expression in human MSC [2, 11]: synergistic increase; mRNA expression of HO-1 (H9c2 cardiomyoblasts [8]): increased mRNA expression; mRNA expression of VEGFa (H9c2 cardiomyoblasts [8]): increased mRNA expression |
| CC(C)(C)c1cc(O)ccc1O [tBHQ, tert-Butylhydroquinone] | among top adjunct agents | even greater expression of VEGF protein | additive to synergistic increase in VEGF protein | not | synergistic increase in viability | protects | synergistic increase | synergistic increase | synergistic increase | synergistic effect only at low dose | synergistic increase | synergistic increase | no effect | decreases | synergistically accentuate | synergistically accentuate | no effect | FGF2 mRNA expression, combination with Gedunin [7, 10]: increased; effect on Gedunin expression of VEGF ([7]; rMSC, combined with Gedunin): decreases |
